Tests used:
ob/ob mice [1] = test: Plasma glucose, cGMP and triglyceride levels in ob/ob mice, oral gavage, 5 day study; assay type: in vivo; details: mean ± SEM; for Changes in Plasma Glucose Concentrations: over 5 day period; for Plasma Triglyceride Level: day 5, 3 hours after dose
Experimental: (§1) The selective PDE5 inhibitor compounds to be tested were solubilized in 10% DMSO/0.1% pluronics and dosed via oral gavage using mouse oral feeding needles (20 gauge, Popper & Sons, Inc., New Hyde Park, N.Y.). A volume of 4 ml/kg weight was administered for each dose. Compounds were tested at doses ranging from 1-50 mg/kg. Alternatively, the test selective PDE5 inhibitor compound was administered in the drinking water and found to produce similar reductions in plasma glucose and triglycerides to the reductions observed for the same compound when administered by oral gavage.
(§2) Male ob/ob mice obtained from Jackson Laboratories (Bar Harbor, ME) were used in the studies at 6 to 10 weeks of age. Mice were housed five per cage and allowed free access to D11 mouse chow (Purina, Brentwood, Mo.) and water.
(§3) Mice were allowed to acclimate to the Pfizer animal facilities for 1 week prior to the start of the study. On day one, retro-orbital blood samples were obtained and plasma glucose was determined as described hereinafter. […] On day one, mice were dosed with vehicle or a test selective PDE5 inhibitor compound only in the afternoon. Subsequently, mice were dosed twice a day on day 2-4 in the morning and in the afternoon. On day 5, the mice received an a.m. dose and bled 3 hours later for plasma preparation for glucose and triglyceride analysis as described below. Alternatively, test selective PDE5 inhibitor compound was administered in the drinking water commencing on the afternoon of day 1 and continuing through day 5, when mice were then bled for plasma preparation for glucose and triglyceride analysis as described below. Terminal plasma samples were collected on day 5 following the retro-orbital sinus bleed as described below. Body weight was measured on days 1 and 5 of the study, and food consumption was assessed over the 5 day period.
(§4) On the morning of the last day of the study mice were dosed with test compound or vehicle at approximately 8:00 am. Three hours after dosing, 25 μL of blood was obtained via the retro-orbital sinus and added to 100 μL of 0.025% heparinized-saline in Denville Scientific microtubes. The tubes were spun at the highest setting in a Beckman Microfuge 12 for 2 minutes. Plasma was collected for plasma glucose and triglyceride determination. The mice were then sacrificed by decapitation and ˜1 ml of blood was collected in Becton-Dickinson Microtainer brand plasma separator tubes with lithium heparin. The tubes were spun in a Beckman Microfuge 12 at the maximum setting for five minutes. Plasma was collected in 1.5 ml Eppendorf tubes and snap frozen in liquid nitrogen. Plasma samples were stored at −80° C. until analyzed.
(§5) Plasma glucose and triglycerides were measured using the Alcyon Clinical Chemistry Analyzer (Abbott Laboratories, Abbott Park, Ill.) using kits supplied by Abbott. Plasma cGMP was measured using the Biotrak enzyme-immunoassay system by Amersham (Piscataway, N.J.). Via a similar technique the plasma insulin can be assessed by the Mercodia ELISA Insulin kit by ALPCO (Uppsala, Sweden). All assays were conducted according to instructions provided by the manufacturers.
(§6) Comparisons between drug treatments and appropriate vehicles were done by Student's t-test.

[2] = tested on: non-diabetic subjects with the insulin resistance syndrome; test: Clinical Trial Data 1: 28-day clinical trial with sildenafil, serum triglyceride levels; assay type: in vivo, human; details: for Fall in serum triglycerides from baseline / Fall in serum triglyceride levels: 28 days; for Fall in serum triglyceride levels: non-diabetic subjects with IRS, preliminary data
Experimental: In a 28-day clinical trial with sildenafil, serum triglyceride levels were obtained before and at the end of dosing from non-diabetic subjects. Doses included in the study were 10 mg, 25 mg and […] of sildenafil or placebo, dosed once daily. These subjects had the insulin resistance syndrome, as defined by the risk factors as defined hereinbefore. Data are presented in tables 5 and 6 below to illustrate that subjects had evidence of the insulin resistance syndrome. Coronary artery disease (CAD)/ischaemic heart disease (1HD) is one clinical end-point in subjects having the Insulin Resistance Syndrome. For this reason the presence of CAD/IHD was taken as evidence to support the existence of the Insulin Resistance Syndrome in patients with only one of the defined risk factors.

ob/ob mice [3] = test: Plasma glucose and triglyceride levels in ob/ob mice, compound administered in the drinking water, 5 day study; assay type: in vivo; details: for Plasma Triglyceride Level: day 5, mean ± SEM; for Changes in Plasma Glucose Concentrations: over 5 day period, mean ± SEM
Experimental: as §1, §2, §3, §4, §5, §6

[4] = 10 mg once daily, baseline 255 mg/dl
[5] = 25 mg once daily, baseline 213 mg/dl
[6] = 50 mg once daily, baseline 191 mg/dl

## CCCc1nn(C)c2c(=O)[nH]c(-c3cc(C(=O)CN4CCOCC4)ccc3OCC)nc12 [PDE5 B, 5-(2-ethoxy-5-morpholinoacetylphenyl)-1-methyl-3-n-propyl-1,6-dihydro-7H-pyrazolo[4,3-d]pyrimidin-7-one]
ob/ob mice [1]; 25 mg/kg oral gavage twice a day
  Changes in Plasma Glucose Concentrations: -97 ± 32 mg/dL
ob/ob mice [1]; 25 mg/kg oral gavage
  Plasma Triglyceride Level: 143 ± 7^ mg/dl

## CCCc1nn(C)c2c(=O)[nH]c(-c3cc(S(=O)(=O)N4CCN(C)CC4)ccc3OCC)nc12 [PDE5 C, 5-[2-ethoxy-5-(4-methyl-1-piperazinylsulphonyl)phenyl]-1-methyl-3-n-propyl-1,6-dihydro-7H-pyrazolo[4,3-d]pyrimidin-7-one]
[2]; [4]
  Fall in serum triglycerides from baseline: about 40%
  Fall in serum triglyceride levels: 100.3 mg/dL
[2]; [5]
  Fall in serum triglycerides from baseline: ~31%
  Fall in serum triglyceride levels: 67.3 mg/dL
[2]; [6]
  Fall in serum triglycerides from baseline: ~12%
  Fall in serum triglyceride levels: 23.9 mg/dL
[2]; sildenafil group vs placebo, p=0.0457
  Reduction of serum triglycerides compared to placebo: statistically significantly different compared to placebo
[2]; sildenafil group vs placebo, p=0.0539
  HDL compared to placebo: trend
ob/ob mice [3]; 9 mg/kg in the drinking water
  Plasma Triglyceride Level: 163 ± 14 mg/dL
  Changes in Plasma Glucose Concentrations: -27 ± 34 mg/dL
ob/ob mice [3]; 22 mg/kg in the drinking water
  Plasma Triglyceride Level: 212 ± 20 mg/dL
  Changes in Plasma Glucose Concentrations: -15 ± 27 mg/dL
ob/ob mice [3]; 45 mg/kg in the drinking water
  Plasma Triglyceride Level: 151 ± 10 mg/dL
  Changes in Plasma Glucose Concentrations: −36 ± 22^ mg/dl

## CCCOc1ccc(S(=O)(=O)N2CCN(CC)CC2)cc1-c1nc2c(CC)n(Cc3ccccn3)nc2c(=O)[nH]1 [PDE5 A, 3-ethyl-5-[5-(4-ethylpiperazin-1-ylsulphonyl)-2-n-propoxyphenyl]-2-(pyridin-2-yl)methyl-2,6-dihydro-7H-pyrazolo[4,3-d]pyrimidin-7-one]
ob/ob mice [1]; 10 mg/kg oral gavage twice a day
  Changes in Plasma Glucose Concentrations: -115 ± 34 mg/dL
ob/ob mice [1]; 10 mg/kg oral gavage
  Plasma Triglyceride Level: 163 ± 10 mg/dL
ob/ob mice [1]; 50 mg/kg oral gavage twice a day
  Changes in Plasma Glucose Concentrations: -105 ± 25 mg/dL

Source: US20020165237A1, “Treatment of the insulin resistance syndrome” (priority 2000, published 2002)
